# Assay results as given in publication PMC12797250, “Structure–activity relationships can be directly extracted from high-throughput crystallographic evaluation of fragment elaborations in crude reaction mixtures” (Chemical Science, 2025).
# How the values were obtained:
# PHIP(2) [1] = target: T1, PHIP(2) (Homo sapiens, UniProt Q8WWQ0); assay: grating-coupled interferometry (waveRAPID), immobilised PHIP([…]); format: binding
# T1 construct: second bromodomain
# PHIP(2) [2] = target: T1, PHIP(2); assay: X-ray crystallography, crystal soak; format: binding; details: acetylated lysine site; soak 8 mM, 24 h, 4 °C, 20% ethylene glycol, pH about 5.6; flipped and translated pose
SMILES,Kd (PHIP(2) [1]) [µM],"X-ray crystallography, crystal soak (PHIP(2) [2])"
CNC(=O)N1CCN(C(=O)c2ccc(COc3ccccc3)o2)CC1 [LAT33],18,
CC1=Nc2ccc(C(=O)N3CCN(C(=O)NC(C)(C)C)CC3)cc2C1(C)C [LAT39],,"long extensions towards the solvent (7FV8, LAT25 and 7FUZ, LAT39)"
